Consider 2 compounds from paper PMC8187380, “Lipophilic nanocrystal prodrug-release defines the extended pharmacokinetic profiles of a year-long cabotegravir” (Nature Communications, 2021).

The structures appear in SMILES notation. Read-outs that look alike come from different tables or passages of the source.

Data set [1] can be described thus: Metabolic stability in blood. The data set is classed as in vitro ADME, mouse, rat, rabbit, monkey, dog, human. The note with it: for Stability in blood: 24 h. The protocol:
[…] The samples were then centrifuged at 16,000 × g for 10 min after which 10 µl of the supernatant was mixed with 80% methanol (containing 0.1% FA and 2.5 mM AF) containing an internal standard (IS) and analyzed by LC-MS/MS. For the time zero start time, a 100 µl of ice-cold blood was spiked with M2CAB and immediately 0.9 ml of methanol (containing 0.1% FA and 2.5 mM AF) was added. Heat-inactivated plasma was incubated at the same conditions and used as negative controls to differentiate chemical versus metabolic stability.

A further data set relates to SHIV. Also on record: method as in PMID 24594934. Particulars: NHP, cited from earlier work.
For data set [2] the following is noted: cited from earlier work.
Data set [3] can be described thus: Plasma/blood PK after single IM injection in male Balb/cJ mice (UNMC). The format is in vivo.
Description: In mice, inguinal, axillary, branchial, and cervical lymph nodes were collected and pooled, while in rats only cervical lymph nodes were collected. Following injection, blood samples were collected at 4 h, days 1, 2, 4, 7, 14, 28, 42, and 56 and then monthly for 12 months into EDTA tubes (blood sample time points were evenly distributed between the four groups). Fifty μl of blood was immediately transferred into 950 μl methanol (containing 0.1% FA and 2.5 mM AF), vortexed, and stored at −80 °C until drug analysis. The remaining portion of the blood samples were centrifuged at 2000 × g for 5 min for plasma collection, which was stored at −80 °C until drug analysis. […] Plasma samples were collected up to day 672 and CAB and M2CAB quantification were performed by LC-MS/MS.
For blood samples, 50 µl blood collected in 950 µl of methanol was vortexed, centrifuged at 16,000 × g for 10 min at 4 °C, and 50 µl supernatant was aspirated, mixed with 50 µl IS [20 ng/ml d3-dolutegravir (d3-DTG) and 40 ng/ml stearoylated darunavir (SDRV)] in 70% methanol (containing 0.1% FA and 2.5 mM AF). d3-DTG was used as the IS (final concentration = 10 ng/ml) for the quantification of CAB, and SDRV (final concentration = 20 ng/ml) was used as the IS for quantification of M2CAB. Ten µl of the sample was analyzed by LC-MS/MS for CAB and M2CAB. […]
A further data set has as its system HIV-1. The note with it: no reference given; cited from earlier work.
Details of data set [4]: method as in PMID 30387005. The note with it: in water; cited from earlier work.
Data set [5] relates to human monocyte-derived macrophages (MDMs). Briefly: Cellular uptake, retention and release in macrophages. The note with it: for Percent taken up by MDMs: 8 h, 10 µM. The format is cell-based. Here is the method: Human peripheral blood monocytes were obtained by leukapheresis from HIV-1,2 and hepatitis B seronegative donors and purified by centrifugal elutriation. Monocytes were cultured for the first seven days in macrophage colony stimulating factor enriched media (MCSF, 1000 U/ml) to facilitate cell vitality and differentiation into macrophages[15],[29]. […] Cells were maintained in clear flat-bottom 12-well plates at 37 °C in a 5% CO2 incubator at a density of 1.0 × 10^6 cells per well. Half-culture media was replaced with fresh media every other day. After differentiation, MDM were utilized for CAB prodrug or drug nanoparticle uptake, retention and release. […] At days 1, 5, 10, 15, 20, and 30, adherent MDM were washed twice with PBS, scraped into PBS, and counted using an Invitrogen Countess Automated Cell Counter (Carlsbad, CA). Cell suspension was then centrifuged at 900 × g for 8 min at 4 °C. […] To quantify release kinetics, drug concentrations were measured in samples collected from the culture media from the same retention experiment using preloaded MDMs, at the same time when cells were harvested to quantify intracellular drug retention.

For data set [6] the following is noted: macaques; cited from earlier work.
Details of data set [7]: method as in PMID 26340566, PMID 26049948. The note with it: cited from earlier work.
A further data set deals with CYP450. Also on record: method as in PMID 26340566, PMID 26049948. The note with it: cited from earlier work.
Data set [8] is described as follows: Chemical (pH) stability of unformulated M2CAB. The format is physicochemical. The note with it: 37 °C, 24 h, 1 μM. The protocol:
Next, we assessed the chemical stability of the solubilized form of M2CAB at a range of pHs [pH 1.0 (0.1 M HCl), pH 7.4 (PBS), pH 8.3 (heat-inactivated plasma) and pH 11.0 (0.1 M NaOH)]. […] At 24 h, percent M2CAB recovered was 87, 52, 5, and 2 at pH 1.0, pH 7.4, pH 8.3 and pH 11.0, respectively (Supplementary Fig. 3). Reductions in M2CAB prodrug concentrations paralleled native CAB formation, indicating the hydrolysis of the prodrug M2CAB into parent CAB.
Supplementary Figure 3. M2CAB pH stability. Chemical stability profile of M2CAB at pH 1.0 (0.1 M HCl), pH 7.4 (PBS), pH 8.3 (heat inactivated plasma) and pH 11.0 (0.1 M NaOH) at 1 μM drug concentration. (a) Percent M2CAB remaining vs. time profile for M2CAB; (b) Percent CAB formation vs. time profile from M2CAB. Data are expressed as mean (N = 2 replicates per time point). Each experiment was repeated independently two times with equivalent results.
(1 picture or pasted object on this page, not shown here)

A short description of data set [9]: Stability in macrophage cell culture media and MDM-cell lysate. The data set is classed as in vitro ADME, human. The note with it: M2CAB solution.
Data set [10] can be described thus: Metabolic stability in liver S9 fractions. The data set is classed as in vitro ADME, mouse, rat, rabbit, monkey, dog, human. The note with it: six species, 2 h incubation, 1 µM. The protocol: The metabolic stabilities of CAB and M2CAB were determined using mouse, rat, rabbit, dog, monkey, and human liver S9 fractions (XenoTech, LLC, Lenexa, KS, USA). Briefly, CAB and M2CAB were incubated at 1 µM in a 100 µl mixture containing S9 fractions at 1 mg/ml protein concentration, NADPH (1 mM), saccharolactone (5 mM), uridine 5′-diphospho-glucuronic acid (UDPGA) (1 mM), and 3′-phosphoadenosin-5′-phosphosulphate (PAPS) ([…]) in PBS (100 mM, pH 7.4) at 37 °C. For each time point (0, 30, and 120 min), reactions were quenched by adding 0.9 ml of methanol (containing 0.1% FA and 2.5 mM AF), followed by centrifugation at 15,000 × g for 10 min. Ten microliters of the supernatants were then analyzed by LC-MS/MS. Heat-inactivated S9 fractions were incubated at the same conditions and used as negative controls. Hydroxycoumarin (7-HC) metabolites including 7-HC-glucuronide and 7-HC-sulfate, and the testosterone metabolite 6β-hydroxytestosterone were used as positive controls for phase I and phase II metabolism.

Data set [11] can be described thus: Metabolic stability in rat tissue homogenates. The data set is classed as in vitro ADME. The protocol:
For metabolic stability in tissues, freshly collected rat liver, spleen, muscle, and lymph node tissues were homogenized in five-volumes of PBS (w/v). […] At different time points (0, 30 min, 2 h, and 6 h), 0.9 ml of methanol (containing 0.1% FA and 2.5 mM AF) was added to each sample and vortexed for 3 min. Samples were centrifuged at 16,000 × g for 10 min, 10 µl supernatant was mixed with 80% methanol (containing 0.1% FA and 2.5 mM AF) containing IS and analyzed by LC-MS/MS.

As to `C[C@H]1CO[C@@H]2Cn3cc(C(=O)NCc4ccc(F)cc4F)c(=O)c(O)c3C(=O)N12` [CAB, cabotegravir], in data set [1] (all species, 1 µM, 37 °C), the Stability in blood result was “stable”. The “Percent of CAB recovered” value in [1] (blood, all six species, by 24 h) is “more than 90%”. The “Protection against intrarectal SHIV challenge” value with SHIV (plasma CAB concentrations >3×PA-IC90) is recorded as 100%. Moreover, in the data set with SHIV (plasma CAB concentrations ≥1×PA-IC90), the “Protection against intrarectal SHIV challenge” value was 97%. Moreover, in data set [2], the Oral bioavailability result is recorded as “near-complete” and the Plasma half-life is 30 to 40 h. For the same compound, in data set [2] (humans), the “Eliminated unchanged in feces” value is recorded as “up to 50%”, the “Glucuronide metabolites in urine” value is listed as 27%, the Terminal phase half-life is 504 to 1200 h and the “Unidentified metabolites in feces” value is listed as 10%. Further, in [2] (oral), the “tmax (oral absorption)” value is 1.5 to 2 h. Besides, the “Fold CAB blood concentration lower than plasma concentration” value in data set [3] (all samples (mice and rats)) is roughly 2 fold. Further, the “Protein-adjusted 90% inhibitory concentration (PA-IC90)” value in the data set on HIV-1 is 0.166 µg/mL. Also, the Aqueous solubility in data set [4] was 15 µg/mL. Also, in [5], the “Percent taken up by MDMs” value was no more than 0.1%. The “Intracellular CAB levels in MDMs” value in [5] (after 8 h drug loading at 10 µM) is on record as “below or at the limit of detection within hours”. Further, the Terminal phase half-life in data set [6] was 72 to 288 h. The Membrane permeability entry in data set [7] was “high”. Also, the “Affinity for CYP450” value with CYP450 is “low”.

Consider `CCCCCCCCCCCCCCCCCC(=O)Oc1c2n(cc(C(=O)NCc3ccc(F)cc3F)c1=O)C[C@H]1OC[C@H](C)N1C2=O` [M2CAB], for which the Stability in blood entry in data set [1] (all species, 1 µM, 37 °C) is listed as “unstable”. In addition, the “Percent of M2CAB hydrolyzed” value in data set [1] (blood of dog, monkey, mouse, rat, rabbit, human, after 6 h, 1 µM, 37 °C) is reported as “Greater than 80%”. For the same compound, in data set [1] (blood, all species), the “Time within which M2CAB was hydrolyzed into the parent CAB” value is reported as no more than 6 h. In data set [1] (control, 1 µM, 37 °C), the “Stability in heat-inactivated plasma” value is recorded as “unstable”. Moreover, the “Percent M2CAB recovered” value came out at 87% in [8] (pH 1.0 (0.1 M HCl)), 52% in data set [8] (pH 7.4 (PBS)), 5% in data set [8] (pH 8.3 (heat-inactivated plasma)) and 2% in data set [8] (pH 11.0 (0.1 M NaOH)). Also, the “Time to complete hydrolysis into CAB in cell lysates” value in data set [9] was no more than 7 days. Also, the “Time to complete hydrolysis into CAB in media” value in data set [9] is listed as no more than 3 days. The “Percent of M2CAB lost” value in data set [10] is on record as less than 25%. In addition, the “Blood concentration of the prodrug as percent of CAB” value in data set [3] (mice and rats, after NM2CAB) is less than 1%. Besides, in data set [5], the “Percent taken up by MDMs” value is “up to 30%”. Further, the “Percent released into the media (recovered as CAB)” value in data set [5] (MDMs, within days) was less than 95%. Also, the “Percent of intracellular drug retained by MDMs” value in [5] (one month after 8 h loading at 10 µM) worked out at 4%. For the same compound, in [11] (control), the “Stability in heat-inactivated liver homogenate” value is listed as “unstable”. Moreover, the “Percent of M2CAB remaining/recovered” value in data set [11] (rat tissue homogenates, after 6 h incubation, 1 µM) is reported as 50–80%.
